SMILES strings stand for the structures. “Also recorded” adds a separate entry of the source.

The results in this text go back to patent US20220096609A1 (priority 2019, published 2022).

The subject of test [1] is mouse phrenic nerve hemi-diaphragm. More on the design: species or system CD-1 mice.
In test [2] the test system is mouse phrenic nerve hemidiaphragm. More on the design: species or system CD-1 mice.

For the compound `Nc1ccncc1N` [DAP, 3,4-diaminopyridine], in test [1], the “higher concentration of toxin required to induce an equivalent reduction in time for 90% paralysis as caused by DAP” value turned out to be 6 times, the “muscle denervation compared with BoNT/E alone” value was “faster muscle denervation”, the “muscle tension response / neurotransmission” value is “elevated muscle tension response; also recorded: enhanced neurotransmission” and the onset of neuroparalysis result is on record as “faster onset of neuroparalysis”. For the same compound, in test [1], the “reduction of the therapeutically effective amount of BoNT/E compared with BoNT/E administered alone” value is reported as 25-600%, the “time taken for 50% paralysis (TTP50)” value was “faster time”, the “time taken for 90% paralysis (TTP90)” value was “faster time” and the “uptake of BoNT/E” value is reported as “increased uptake”.

As to `Nc1ccncc1` [4-AP, 4-aminopyridine], in test [2], the “faster BoNT/A onset (time required for 50% paralysis)” value is “approximately 25%”, the “increase of (initial) amplitude of muscle tension” value is on record as “approximately 2.5 fold” and the “onset of paralysis compared with 30 pM BoNT/A in the absence of 4-AP” value is reported as “progressed faster; also recorded: increased the onset of paralysis”.
